pIC50: −log10 of the molar value.
Columns and labels:
DU145 cells = experiment: Proliferation assay, DU145; type: cell-based; settings: Homo sapiens, DU-145, 96 h; 4 days, crystal violet; read-out: Inhibition of DU145 cell proliferation IC50
Protocol: (§1) Cultivated tumour cells (HeLa, human cervical tumour cells, ATCC CCL-2; NCI-H460, human non-small cell lung carcinoma cells, ATCC HTB-177; DU 145, hormone-independent human prostate carcinoma cells, ATCC HTB-81; HeLa-MaTu-ADR, multidrug-resistant human cervical carcinoma cells, EPO-GmbH Berlin; Caco-2, human colorectal carcinoma cells, ATCC HTB-37; B16F10, mouse melanoma cells, ATCC CRL-6475) were plated at a density of 5,000 cells/well (DU145, HeLa-MaTu-ADR), 3,000 cells/well (NCI-H460, HeLa), 1,500 cells/well (Caco-2), or 1,000 cells/well (B16F10) in a 96-well multititer plate in 200 μL of their respective growth medium supplemented 10% fetal calf serum. After 24 hours, the cells of one plate (zero-point plate) were stained with crystal violet (see below), while the medium of the other plates was supplemented with the test substances in various concentrations (0 μM, as well as in the range of 0.0001-10 μM; the final concentration of the solvent dimethyl sulfoxide was adjusted to 0.1%) using a Hewlett-Packard HP D300 Digital Dispenser. The cells were incubated for 4 days in the presence of test substances. Cell proliferation was determined by staining the cells with crystal violet: the cells were fixed by adding 20 μl/measuring point of an 11% glutaric aldehyde solution for 15 minutes at room temperature. After three washing cycles of the fixed cells with water, the plates were dried at room temperature. The cells were stained by adding 100 μl/measuring point of a 0.1% crystal violet solution (pH 3.0). After three washing cycles of the stained cells with water, the plates were dried at room temperature. The dye was dissolved by adding 100 μl/measuring point of a 10% acetic acid solution. The extinction was determined by photometry at a wavelength of 595 nm. The change of cell number, in percent, was calculated by normalization of the measured values to the extinction values of the zero-point plate (=0%) and the extinction of the untreated ([…]) cells (=100%). The IC50 values (inhibitory concentration at 50% of maximal effect) were determined by means of a 4 parameter fit. A2780 human ovarian carcinoma cells (ECACC #93112519) and non-adherent MOLM-13 human acute myeloid leukemia cells (DSMZ ACC 554) were seeded at a density of 3,000 cell/well (A2780) or 5,000 cells/well (MOLM-13) in a 96-well multititer plate in 150 μL of growth medium supplemented 10% fetal calf serum. After 24 hours, cell viability of one plate (zero-point plate) was determined with the Cell Titre-Glo Luminescent Cell Viability Assay (Promega), while the medium of the other plates was supplemented with the test substances in various concentrations (0 μM, as well as in the range of 0.0001-10 μM; the final concentration of the solvent dimethyl sulfoxide was adjusted to 0.1%) using a Hewlett-Packard HP D300 Digital Dispenser. Cell viability was assessed after 72-hour exposure with the Cell Titre-Glo Luminescent Cell Viability Assay (Promega). IC50 values (inhibitory concentration at 50% of maximal effect) were determined by means of a 4 parameter fit on measurement data which were normalized to vehicle (DMSO) treated cells (=100%) and measurement readings taken immediately before compound exposure (=0%).

B16F10 cells = experiment: Proliferation assay, B16F10; type: cell-based; settings: Mus musculus, B16-F10, 96 h; 4 days, crystal violet; read-out: Inhibition of B16F10 cell proliferation IC50
Protocol: as §1

| pIC50 (DU145 cells) | pIC50 (B16F10 cells) | Compound |
| --- | --- | --- |
| 7.07 | 6.96 | CS(=N)(=O)Cc1cc2nc(c1)OCCCCOc1cc(ccc1F)-c1cc(ncc1F)N2 (racemic) [Example 2, (rac)-3,20-difluoro-10-[(S-methylsulfonimidoyl)methyl]-13,18-dioxa-5,7,24-triazatetracyclo[17.3.1.1^2,6.1^8,12]pentacosa-1(23),2(25),3,5,8(24),9,11,19,21-nonaene] |
| 6.69 | 6.57 | CC(C)(C)OC(=O)N=S(C)(=O)Cc1cc2cc(c1)OCCCCOc1cc(ccc1F)-c1nc(ncc1F)N2 (racemic) [Example 3, (rac)-tert-butyl [{[3,20-difluoro-13,18-dioxa-5,7,25-triazatetracyclo[17.3.1.1^2,6.1^8,12]pentacosa-1(23),2(25),3,5,8(24),9,11,19,21-nonaen-10-yl]methyl}(methyl)oxido-λ^6-sulfanylidene]carbamate] |
| 6.86 | 6.75 | CS(=N)(=O)Cc1cc2cc(c1)OCCCCOc1cc(ccc1F)-c1nc(ncc1F)N2 (racemic) [Example 4, (rac)-3,20-difluoro-10-[(S-methylsulfonimidoyl)methyl]-13,18-dioxa-5,7,25-triazatetracyclo[17.3.1.1^2,6.1^8,12]pentacosa-1(23),2(25),3,5,8(24),9,11,19,21-nonaene] |
| 6.23 | 6.00 | CC(C)(C)OC(=O)N=S(C)(=O)Cc1cc2cc(c1)OCCCCCOc1cc(ccc1F)-c1nc(ncc1F)N2 (racemic) [Example 5, (rac)-tert-butyl [{[3,21-difluoro-13,19-dioxa-5,7,26-triazatetracyclo[18.3.1.1^2,6.1^8,12]hexacosa-1(24),2(26),3,5,8(25),9,11,20,22-nonaen-10-yl]methyl}(methyl)oxido-λ^6-sulfanylidene]carbamate] |
| 6.92 | 6.77 | CS(=N)(=O)Cc1cc2cc(c1)OCCCCCOc1cc(ccc1F)-c1nc(ncc1F)N2 (racemic) [Example 6, (rac)-3,21-difluoro-10-[(S-methylsulfonimidoyl)methyl]-13,19-dioxa-5,7,26-triazatetracyclo[18.3.1.1^2,6.1^8,12]hexacosa-1(24),2(26),3,5,8(25),9,11,20,22-nonaene] |
| 6.71 | 6.65 | CS(=N)(=O)Cc1cc2cc(c1)OCCCCOc1c(F)ccc(c1F)-c1nc(ncc1F)N2 (racemic) [Example 8, (rac)-3,20,23-trifluoro-10-[(S-methylsulfonimidoyl)methyl]-13,18-dioxa-5,7,25-triazatetracyclo[17.3.1.1^2,6.1^8,12]pentacosa-1(23),2(25),3,5,8(24),9,11,19,21-nonaene] |
| 6.74 | 6.68 | CS(=N)(=O)Cc1cc2cc(c1)OCCCOc1cc(ccc1F)-c1nc(ncc1F)N2 (racemic) [Example 10, (rac)-3,19-difluoro-10-[(S-methylsulfonimidoyl)methyl]-13,17-dioxa-5,7,24-triazatetracyclo[16.3.1.1^2,6.1^8,12]tetracosa-1(22),2(24),3,5,8(23),9,11,18,20-nonaene] |
